EC50 and Ki data for 13 compounds are collected here from patent US6632816B1, “Aromatic derivatives as HIV aspartyl protease inhibitors” (Pharmacor Inc., priority 2002, dated 2003).

Test [1] concerns HIV-1 laboratory viral strain NL4.3 (wild type virus). The experiment in a line: Anti-viral assay in vitro (MTT, infected MT-4 cells). Type of test: cell-based. The following applies: MT-4 cells infected with NL4.3, six days, MTT assay, read-out: EC50. The protocol:
Anti-viral and Cytotoxicity Assays In Vitro
To evaluate the EC50 of our compounds, various drug concentrations are incubated with the infected cell for six days and then the metabolic activity of the cells is monitored by the MTT assay. (See A. J. Japour et al, Antimicrobial Agents and Chemotherapy, 37, 1095-1101, 1993 and R. Pauwels et al. Journal of Virological Methods, 20, 309-321, 1988)
We use the laboratory viral strain NL4.3 as wild type virus and the cell line used is MT-4 which is a T-cell line highly sensitive to HIV-1. We also use some WT clinical strains. To address the resistance issue we assay the inhibitors with NL4.3 mutants which are designed to be resistant to specific commercially,available inhibitors

For test [2], the target named is T1, HIV protease (Human immunodeficiency virus type 1 group M subtype B, UniProt P04585). The settings on record: FRET assay, Henderson equation.
Test [3] addresses T1, HIV protease. The experiment in a line: biochemical.
The mark [4] stands for this setting: Human immunodeficiency virus 1, MT4, 144 h.

Where two headings read alike, the source gives them in different places.

As to `COC(=O)N[C@@H](Cc1ccccc1-c1ccccc1)C(=O)NCCCCC(CO)N(CC(C)C)S(=O)(=O)c1ccc(N)cc1` (stereo partly drawn) [Example 30, (1S,5R,S)-(1-{5-[(4-Amino-benzenesulfonyl)-isobutyl-amino]-6-hydroxy-hexylcarbamoyl}-2-biphenyl-2-yl-ethyl)-carbamic Acid Methyl Ester], the EC50 in test [1] was 344 nM. The same compound yielded an inhibition constant Ki in test [2] of 1.4 nM.

Turning to `COC(=O)N[C@H](C(=O)NCCCC[C@@H](CO)N(CC(C)C)S(=O)(=O)c1ccc(F)c(N)c1)C(c1ccccc1)c1ccccc1` [Example 58, (1S,5S)-(1-{5-[(3-Amino-4-fluoro-benzenesulfonyl)-isobutyl-amino]-6-hydroxy-hexylcarbamoyl}-2,2-diphenyl-ethyl)-carbamic Acid Methyl Ester], the EC50 in test [1] (setting [4]) amounted to 25 nM. Further, in test [3], the inhibitory constant (Ki) is 0.65 nM.

With `CC(C)CN([C@H](CO)CCCCNC(=O)[C@H](Cc1ccc2ccccc2c1)NC(=O)c1cnccn1)S(=O)(=O)c1ccc(N)cc1` [Example 62, (1S,5S)-Pyrazine-2-carboxylic Acid (1-{5-[(4-Amino-benzenesulfonyl)-isobutyl-amino]-6-hydroxy-hexylcarbamoyl}-2-naphthalen-2-yl-ethyl)-amide], the 50% effective concentration (EC50) in test [1] (setting [4]) turned out to be 361 nM. In test [3], this compound gave a Ki of 2.1 nM.

Regarding `CC(C)CN([C@H](CO)CCCCNC(=O)[C@H](Cc1cccc2ccccc12)NC(=O)N1CCOCC1)S(=O)(=O)c1ccc2c(c1)OCO2` [Example 66, (1S,5S)-Morpholine-4-carboxylic Acid (1-{5-[(Benzo[1,3]dioxole-5-sulfonyl)-isobutyl-amino]-6-hydroxy-hexylcarbamoyl}-2-naphthalen-1-yl-ethyl)-amide], the EC50 in test [1] (setting [4]) was 409 nM. For the same compound, the Ki in test [3] is 1.1 nM.

As to `CC(=O)N[C@H](C(=O)NCCCC[C@@H](CO)N(CC(C)C)S(=O)(=O)c1ccc(N)cc1)C(c1ccccc1)c1ccccc1` [Example 71, (2S,5S)-2-Acetylamino-N-{5-[(4-amino-benzenesulfonyl)-isobutyl-amino]-6-hydroxy-hexyl}-3,3-diphenyl-propionamide], the EC50 in test [1] (setting [4]) turned out to be 66 nM. The compound also returned an inhibition constant Ki in test [3] of 1.5 nM.

For the compound `CC(C)CN([C@H](CO)CCCCNC(=O)[C@@H](NC(=O)c1cccnc1)C(c1ccccc1)c1ccccc1)S(=O)(=O)c1ccc(N)cc1` [Example 73, (1S,5S)-N-(1-{5-[(4-Amino-benzenesulfonyl)-isobutyl-amino]-6-hydroxy-hexylcarbamoyl}-2,2-diphenyl-ethyl)-nicotinamide], in test [1] (setting [4]), the EC50 turned out to be 39 nM. Also, the Ki in test [3] was 0.681 nM.

Turning to `CC(C)CN([C@H](CO)CCCCNC(=O)[C@@H](NC(=O)c1ccncc1)C(c1ccccc1)c1ccccc1)S(=O)(=O)c1ccc(N)cc1` [Example 74, (1S,5S)-N-(1-{5-[(4-Amino-benzenesulfonyl)-isobutyl-amino]-6-hydroxy-hexylcarbamoyl}-2,2-diphenyl-ethyl)-isonicotinamide], in test [1] (setting [4]), the EC50 is 32 nM. The compound also displayed a Ki in test [3] of 0.647 nM.

Regarding `CC(C)CN([C@H](CO)CCCCNC(=O)[C@@H](NC(=O)C1CC1)C(c1ccccc1)c1ccccc1)S(=O)(=O)c1ccc(N)cc1` [Example 75, (1S,5S)-Cyclopropanecarboxylic Acid (1-{5-[(4-Amino-benzenesulfonyl)-isobutyl-amino]-6-hydroxy-hexylcarbamoyl}-2,2-diphenyl-ethyl)-amide], in test [1] (setting [4]), the 50% effective concentration (EC50) was 25 nM. In test [3], this compound yielded a Ki of less than 3.8 nM.

Turning to `CC(C)CN([C@H](CO)CCCCNC(=O)[C@@H](NC(=O)C1CCCCC1)C(c1ccccc1)c1ccccc1)S(=O)(=O)c1ccc(N)cc1` [Example 76, (1S,5S)-Cyclohexanecarboxylic Acid (1-{5-[(4-Amino-benzenesulfonyl)-isobutyl-amino]-6-hydroxy-hexylcarbamoyl}-2,2-diphenyl-ethyl)-amide], the EC50 in test [1] (setting [4]) is 93 nM. Besides, the Ki in test [3] was less than 3.8 nM.

Consider `CC(C)CN(C(CO)CCCCNC(=O)C(NC(=O)C1CCOC1)C(c1ccccc1)c1ccccc1)S(=O)(=O)c1ccc(N)cc1` [Example 77, (1S,3R,S,5S)-Tetrahydro-furan-3-carboxylic Acid (1-{5-[(4-Amino-benzenesulfonyl)-isobutyl-amino]-6-hydroxy-hexylcarbamoyl}-2,2-diphenyl-ethyl)-amide], for which the EC50 in test [1] (setting [4]) came out at 68 nM. Also, the inhibition constant (Ki) in test [3] was 0.581 nM.

As for `COC(=O)N[C@H](C(=O)NCCCC[C@@H](CO)N(CC(C)C)S(=O)(=O)c1ccc(F)cc1)C(c1ccccc1)c1ccccc1` [Example 78, (1S,5S)-(1-{5-[(4-Fluoro-benzenesulfonyl)-isobutyl-amino]-6-hydroxy-hexylcarbamoyl}-2,2-diphenyl-ethyl)-carbamic Acid Methyl Ester], the EC50 in test [1] (setting [4]) amounted to 94 nM. The compound also yielded a Ki in test [3] of less than 3.8 nM.

`COC(=O)N[C@H](C(=O)NCCCC[C@@H](CO)N(CC(C)C)S(=O)(=O)c1ccc(C#N)cc1)C(c1ccccc1)c1ccccc1` [Example 79]: in test [1] (setting [4]), the EC50 stood at 65 nM. In test [3], this compound registered a Ki of less than 3.8 nM.

Consider `COC(=O)N[C@H](C(=O)NCCCC[C@@H](CO)N(CC(C)C)S(=O)(=O)c1ccc(F)cc1F)C(c1ccccc1)c1ccccc1` [Example 80, (1S,5S)-(1-{5-[(2,4-Difluoro-benzenesulfonyl)-isobutyl-amino]-6-hydroxy-hexylcarbamoyl}-2,2-diphenyl-ethyl)-carbamic Acid Methyl Ester], for which the EC50 in test [1] (setting [4]) is 48 nM. The Ki in test [3] was less than 3.8 nM.
